Structures are written as SMILES. Structures can show the parent of a compound that is named as a salt.

Experimental findings from article PMC6792352, “Limited Chemical Structural Diversity Found to Modulate Thyroid Hormone Receptor in the Tox21 Chemical Library” (Environmental Health Perspectives, 2019) are described below.

The first data set can be described thus: in vitro. The note with it: rat, gh3-tre-luc cells, AC50 (uM) modified / 1000.
With `CCOC(=O)COc1ccc2c(c1)C[C@@H](NC[C@H](O)c1cccc(Cl)c1)CC2` [SR58611], the CC50 (usually the concentration giving 50% cytotoxicity) at 24 h stood at 24.3 µM.

In turn, `COc1cccc(-c2ccc(/C=C\CN3CCCCCC3)cc2Cl)c1` [SR125047] returned a CC50 at 24 h of 17.7 µM.

`CN(C)C(=O)NC1(c2ccccc2)CCN(CC[C@@]2(c3ccc(F)c(F)c3)CN(C(=O)c3ccccc3)CCO2)CC1` [SR144190]: the CC50 at 24 h stood at 55.6 µM. Compared with the last molecule, the CC50 at 24 h is about 3.1-fold higher.

For `COc1cc(-c2nc(NC(=O)c3cc4cc(C)cc(C)c4n3CC(=O)O)sc2CCC2CCCCC2)c(OC)cc1Cl` [SR146131 trifluoroacetate (1:1)], the CC50 at 24 h stood at 12.1 µM. Against the preceding molecule, the CC50 at 24 h is about 4.6-fold lower.

`CCN(CC)CCNc1ccc(CNC=O)c2sc3ccc(OC)cc3c(=O)c12` [SR271425] showed a CC50 at 24 h of 11.7 µM.

Consider `NC1CCN(c2cccc(Cl)n2)CC1` [SR 57227A hydrochloride], for which the midpoint of cytotoxicity, the CC50 at 24 h, lay at 24.7 µM.

Molecule `COc1cc(C(C)C)c2c(c1)S(=O)(=O)N(COc1cc(=O)n3cccc(OCCN4CCCCC4)c3n1)C2=O` [SSR69071] came in with a CC50 at 24 h of 11.9 µM.

As for `CCN(Cc1cccnc1)C(=O)c1cccc(Cl)c1[C@]1(C)C(=O)N(Cc2ccc(OC)cc2OC)c2ccc(Cl)cc21` [SSR126768], the cytotoxic concentration (CC50) at 24 h was found to be 9.39 µM. This CC50 at 24 h and that of the molecule before are within 1.5-fold of each other.

`CN(C)C(=O)NC1(c2ccccc2)CCN(CCC[C@]2(c3ccc(Cl)c(Cl)c3)CCCN(C(=O)c3ccccc3)C2)CC1` [SSR146977] had a CC50 at 24 h of 8.07 µM.

With `FC(F)(F)c1cccc(C2=CCN(CCc3ccc4ccncc4c3)CC2)c1` [SSR150106], the CC50 at 24 h amounted to 76.9 µM.

In the case of `COc1ccc(C(=O)/N=c2\[nH]c3ccccc3c(NCc3ccccc3)c2C#N)cc1` [SSR161421], the CC50 at 24 h is > 90 µM.

Consider `N#C[C@@H]1CC(F)(F)CN1C(=O)CNC1CC2CCC(C1)N2c1ncccn1` (stereo partly shown) [SSR162369], for which the CC50 at 24 h was > 90 µM.

`O=C(Oc1ccc(Br)cc1)N1CCN2CCC1CC2` [SSR180711] came in with a CC50 at 24 h of 44 µM.

Turning to `O=C(N[C@@H](c1ccccc1)[C@@H]1CCCCN1)c1cccc(C(F)(F)F)c1Cl` [SSR504734], the CC50 at 24 h turned out to be 19.9 µM.

In the case of `O=C(N[C@H](c1ccccc1)[C@@H]1CN2CCC1CC2)c1c(Cl)ccc(C(F)(F)F)c1Cl` [SSR 103800], it took 9.74 µM to reach half-maximal cytotoxicity (CC50 at 24 h). Against the preceding molecule, the CC50 at 24 h is about 2-fold lower.

The molecule `COc1ccc2cc(S(=O)(=O)N[C@H](CC(=O)N[C@H](Cc3ccc(CN4[C@H](C)CCC[C@@H]4C)cc3)C(=O)N(C)C(C)C)c3ccc4c(c3)OCO4)ccc2c1` [SSR 240612] showed a CC50 at 24 h of 4.04 µM.

`CN(C)C(=O)C1(N2CCCCC2)CCN(CC[C@@]2(c3ccc(Cl)c(Cl)c3)CN(C(=O)c3ccccc3)CCO2)CC1` [SSR 241586 HCl] came in with a CC50 at 24 h of 4.07 µM.

Regarding `Cc1cc(C)c(/C=C2\C(=O)Nc3ccccc32)[nH]1` [SU-5416], the CC50 at 24 h was > 50 µM.

Regarding `CCCCCCCCCCCCCCC[C@H](O)[C@@H](N)CO` [Safingol], the CC50 at 24 h is > 50 µM.

For `CC1=C(C=O)C(C)(C)CC=C1` [Safranal], the CC50 at 24 h was > 100 µM.

`CC(CCc1ccc2c(c1)OCO2)NN` (stereo not shown) [Safrazine hydrochloride]: the CC50 at 24 h is > 50 µM.

In the case of `OCc1ccccc1O` [Salicyl alcohol], the CC50 at 24 h is > 50 µM.

As to `O=Cc1ccccc1O` [Salicylaldehyde], the CC50 at 24 h is > 90 µM.

Take `NC(=O)c1ccccc1O` [Salicylamide]: the CC50 at 24 h is > 90 µM.

As for `O=C(Nc1ccccc1)c1ccccc1O` [Salicylanilide], the CC50 at 24 h is > 90 µM.

Regarding `Cc1ccc(OC(=O)c2ccccc2O)cc1` [Salicylic acid p-tolyl ester], the CC50 at 24 h was > 90 µM.

Consider `OC[C@H]1O[C@@H](OCCc2ccc(O)cc2)[C@H](O)[C@@H](O)[C@@H]1O` [Salidroside], for which the CC50 at 24 h was > 50 µM.

On to `O=C(N/N=C/c1ccccc1O)c1ccncc1` [Salinazid], for which the CC50 at 24 h was > 50 µM.

Turning to `CC[C@@H](C(=O)[C@@H](C)[C@@H](O)[C@H](C)[C@@H]1O[C@@H]([C@@H](CC)C(=O)O)CC[C@@H]1C)[C@H]1O[C@]2(C=C[C@@H](O)[C@]3(CC[C@@](C)([C@H]4CC[C@](O)(CC)[C@H](C)O4)O3)O2)[C@H](C)C[C@@H]1C` [Salinomycin sodium], the CC50 at 24 h came to 0.823 µM. That is a sub-micromolar value.

For the molecule `OCc1cc(C(O)CNCCCCCCOCCCCc2ccccc2)ccc1O` (stereo not shown) [Salmeterol], the midpoint of cytotoxicity, the CC50 at 24 h, lay at 10.6 µM.

On to `O=C(Oc1ccccc1C(=O)O)c1ccccc1O` [Salsalate], for which the CC50 at 24 h is > 50 µM.

`C[n+]1cc2c3c(ccc2c2ccc4cc5c(cc4c21)OCO5)OCO3` [Sanguinarine] displayed a CC50 at 24 h of 2.9 µM.

For `C[C@@H]1C(=O)C[C@H]2[C@]3(C)CC[C@@]2([C@H](C)C(=O)O)C(=O)[C@H]13` [Santonic acid], the CC50 at 24 h is > 50 µM.

With `O=C(O)c1cn(-c2ccc(F)cc2)c2cc(N3CCNCC3)c(F)cc2c1=O` [Sarafloxacin hydrochloride], the CC50 at 24 h is > 50 µM.

As to `CNCC(=O)N[C@@H](CCCN=C(N)N)C(=O)N[C@H](C(=O)N[C@@H](Cc1ccc(O)cc1)C(=O)N[C@H](C(=O)N[C@@H](Cc1cnc[nH]1)C(=O)N1CCC[C@H]1C(=O)N[C@@H](C)C(=O)O)C(C)C)C(C)C` [Saralasin], the CC50 at 24 h is > 50 µM.

As to `COc1cccc(CCc2ccccc2OCC(CN(C)C)OC(=O)CCC(=O)O)c1` (stereo not shown) [Sarpogrelate hydrochloride], the midpoint of cytotoxicity, the CC50 at 24 h, lay at 17.2 µM.

On to `N#C[C@@H]1C[C@@H]2C[C@@H]2N1C(=O)[C@@H](N)C12CC3CC(CC(O)(C3)C1)C2` [Saxagliptin], for which the CC50 at 24 h is > 50 µM.

Consider `C=C[C@](C)(O)CC[C@@H]1[C@@]2(C)CCCC(C)(C)[C@@H]2CC[C@@]1(C)O` [Sclareol], for which the CC50 at 24 h came out at 29.3 µM.

Take `C[N+]1(C)[C@@H]2CC(OC(=O)[C@H](CO)c3ccccc3)C[C@H]1[C@@H]1O[C@@H]12` (stereo partly shown) [Scopolamine methylbromide]: the CC50 at 24 h is > 50 µM.

Consider `CCNc1nc(NC(C)CC)nc(OC)n1` (stereo not shown) [Secbumeton], for which the CC50 at 24 h is > 90 µM.

Consider `Cc1ncc([N+](=O)[O-])n1CC(C)O` (stereo not shown) [Secnidazole], for which the CC50 at 24 h was > 50 µM.

Consider `O=C1C=C2C=C[C@@H]3C[C@@]2(O1)[C@H]1CCCCN31` [Securinine], for which the midpoint of cytotoxicity, the CC50 at 24 h, lay at 15.3 µM.

In turn, `CO[C@H]1C[C@H](O[C@@H]2/C(C)=C/C[C@@H]3C[C@@H](C[C@]4(CC[C@H](C)[C@@H](C5CCCCC5)O4)O3)OC(=O)[C@@H]3C=C(C)/C(=N/O)[C@H]4OC/C(=C\C=C\[C@@H]2C)[C@]43O)O[C@@H](C)[C@@H]1O` [Selamectin] came in with a CC50 at 24 h of 33.2 µM.

As to `C#CCN(C)[C@H](C)Cc1ccccc1` [Selegiline hydrochloride], the CC50 at 24 h was > 50 µM.

Regarding `C[Se]CC[C@H](N)C(=O)O` [Selenomethionine], the CC50 at 24 h was > 50 µM.

Consider `Cn1cnc2c(F)c(Nc3ccc(Br)cc3Cl)c(C(=O)NOCCO)cc21` [Selumetinib], for which the CC50 at 24 h is > 50 µM.

Consider `CCN(CC)CCNC(=O)c1ccc(NS(C)(=O)=O)cc1` [Sematilide monohydrochloride], for which the CC50 at 24 h is > 50 µM.

For the molecule `NNC(N)=O` [Semicarbazide hydrochloride], the CC50 at 24 h is > 90 µM.

On to `O=C(O)c1cc(O)c2c(c1)[C@H]([C@H]1c3cc(C(=O)O)cc(O)c3C(=O)c3c(O[C@@H]4O[C@H](CO)[C@@H](O)[C@H](O)[C@H]4O)cccc31)c1cccc(O[C@@H]3O[C@H](CO)[C@@H](O)[C@H](O)[C@H]3O)c1C2=O` [Sennoside A], for which the cytotoxic concentration (CC50) at 24 h was > 50 µM.

On to `Clc1ccc(C(Cn2ccnc2)OCc2csc3c(Cl)cccc23)c(Cl)c1` (stereo not shown) [Sertaconazole nitrate], for which half-maximal cytotoxicity (CC50 at 24 h) was put at 18.4 µM. In other words, the double-digit micromolar range.

Molecule `CN[C@H]1CC[C@@H](c2ccc(Cl)c(Cl)c2)c2ccccc21` [Sertraline hydrochloride] displayed a CC50 at 24 h of 7.85 µM.

As for `Oc1ccc2c(c1)OCO2` [Sesamol], the half-maximal cytotoxic concentration (CC50) at 24 h is > 90 µM.

For the molecule `CCC/C(=N\OCC)C1=C(O)CC(CC(C)SCC)CC1=O` (stereo not shown) [Sethoxydim], the CC50 at 24 h was > 90 µM.

With `FCOC(C(F)(F)F)C(F)(F)F` [Sevoflurane], the CC50 at 24 h was > 50 µM.

Molecule `Cc1cc(O)c2c(c1)O[C@@]1(C)CC[C@H]3C(C)(C)CCC[C@]34CO[C@@H]2[C@H]41` [Siccanin] returned a CC50 at 24 h of 15.9 µM. This counts as double-digit micromolar.

Consider `CC1CCCCC1NC(=O)Nc1ccccc1` (stereo not shown) [Siduron], for which the CC50 at 24 h is > 90 µM.

For `CN/C(=N\c1ccc(C2=NNC(=O)CC2C)cc1)NC#N` (stereo not shown) [Siguazodan], the CC50 at 24 h is > 50 µM.

As to `CCCc1nn(C)c2c(=O)[nH]c(-c3cc(S(=O)(=O)N4CCN(C)CC4)ccc3OCC)nc12` [Sildenafil citrate], the CC50 at 24 h was > 50 µM.

As to `COc1cc([C@H]2Oc3cc([C@H]4Oc5cc(O)cc(O)c5C(=O)[C@@H]4O)ccc3O[C@@H]2CO)ccc1O` [Silybin], the CC50 at 24 h was > 90 µM.

For the molecule `CCNc1nc(Cl)nc(NCC)n1` [Simazine], the CC50 at 24 h was > 90 µM.

For the molecule `CSCC[C@H](NC(=O)[C@H](Cc1ccc(OS(=O)(=O)O)cc1)NC(=O)[C@@H](N)CC(=O)O)C(=O)NCC(=O)N[C@@H](Cc1c[nH]c2ccccc12)C(=O)N[C@@H](CCSC)C(=O)N[C@@H](CC(=O)O)C(=O)N[C@@H](Cc1ccccc1)C(N)=O` [Sincalide], the CC50 at 24 h is > 50 µM.

Consider `CN[C@@H]1[C@@H](O)[C@@H](O[C@@H]2[C@@H](O)[C@H](O[C@H]3OC(CN)=CC[C@H]3N)[C@@H](N)C[C@H]2N)OC[C@]1(C)O` [Sisomicin sulfate], for which the CC50 at 24 h was > 20 µM.

On to `N[C@@H]1CN(c2c(F)cc3c(=O)c(C(=O)O)cn([C@@H]4C[C@@H]4F)c3c2Cl)CC12CC2` [Sitafloxacin], for which the CC50 at 24 h was > 50 µM.

The same data set, now with this note: rat, gh3-tre-luc cells, AC50 (uM) modified / 1000, Tox21_110001=Tox21_111448; viability, 1 nM T3 present, 24 h.
As for `CC(C)CC(N(C)C)C1(c2ccc(Cl)cc2)CCC1` (stereo not shown) [Sibutramine hydrochloride], the CC50 at 24 h is > 50 µM.

The same data set, now with this note: rat, gh3-tre-luc cells, AC50 (uM) modified / 1000, Tox21_110001=Tox21_200857; viability, 1 nM T3 present, 24 h.
In the case of `NC(N)=[Se]` [Selenourea], the CC50 at 24 h was > 90 µM.

Staying with this data set, now noted: rat, gh3-tre-luc cells, AC50 (uM) modified / 1000, Tox21_110001=Tox21_202439; viability, 1 nM T3 present, 24 h.
Take `C=CCc1ccc2c(c1)OCO2` [Safrole]: the CC50 at 24 h is > 90 µM.

The data set is the same for the next values; noted with them: rat, gh3-tre-luc cells, AC50 (uM) modified / 1000, Tox21_110001=Tox21_300702; viability, 1 nM T3 present, 24 h.
On to `CCNc1nc(NCC)nc(SC)n1` [Simetryn], for which the CC50 at 24 h was > 90 µM.
